Results published in patent US5254543A, “Sulphonylbenzyl-substituted pyridones which are angiotension II receptor antagonists” (Bayer Aktiengesellschaft, priority 1992, dated 1993).

System: angiotensin II-induced contraction of isolated rabbit aorta rings
Assay: Inhibition of agonist-induced contraction, angiotensin II: inhibition of vascular contraction in isolated rabbit aorta rings in vitro
Conditions: based on the 3rd = submaximal agonist concentration, read-out: IC50 against contractions induced by AII
Method: Rabbits of both sexes are stunned by a blow to the neck and bled out, or in some cases anesthetised with Nembutal (about 60-80 mg/kg i.v.) and sacrificed by opening the thorax. The thorax aorta is taken out, freed from adhering connective tissue, divided into 1.5 mm wide ring segments and individually transferred under an initial loading of about 3.5 g to 10 ml organ baths containing 95% O2 /5% CO2 -aerated Krebs-Henseleit nutrient solution temperature-controlled at 37° C. of the following composition: 119 mmol/l of NaCl; 2.5 mmol/l of CaCl2 ×2 H2 O; 1.2 mmol/l of KH2 PO4; 10 mmol/l of glucose; 4.8 mmol/l of KCl; 1.4 mmol/l of MgSO4 ×7 H2 O and 25 mmol/l of NaHCO3.
The contractions are measured isometrically by Statham UC2 cells by means of bridge amplifiers (ifd Mulheim or DSM Aalen) and digitalised and analysed by means of A/D convertors (System 570, Keithley Munich). Agonist dose response curves (DRC) were plotted hourly. With each DRC, 3 or 4 individual concentrations are applied to the baths at an interval of 4 min. […]
The height of the 3rd DRC in the normal case is used as a reference quantity for the evaluation of the test substance to be investigated in further passages, which is applied to the baths in the following DRCs in increasing dosage in each case at the start of the incubation time. […]

`CCCCc1cc(C(=O)O)cc(=O)n1Cc1ccc(S(=O)(=O)N2CCCC2C(=O)O)cc1Cl` (stereo not shown) [Example 6] showed an IC50 of 280 nM.
